Format in all cases: cell-based
The test system of one assay is NCI-H520 cell line. Put plainly: MTT cell proliferation assay, NCI-H520. As to conditions: Homo sapiens, 48 hours, read-out: half maximal inhibitory concentration (IC50). Here is the method:
(§1) NSCLC cell lines A549, NCI-H460, NCI-H520 and normal lung cell line MRC5 were obtained from Bioresource Collection and Research Center (BCRC, Taiwan). A549 cell line was cultured with F12K medium (21127, GIBCO, Carlsbad, U.S.A.). Both NCI-H460 and NCI-H520 cell lines were cultured with RPMI1640 medium (23400, GIBCO, Carlsbad, U.S.A.). MRC5 cell line was culture with MEM medium (41500, GIBCO, Carlsbad, U.S.A.). All media mentioned above contained 10% FBS (10437, GIBCO, Carlsbad, U.S.A.). All cultures were maintained in an incubator (Thermo forma 370, Waltham, U.S.A.) with 5% CO2 at 37° C. Cells were seeded at 1×10^4 cells per well in a 24-well plate for 16 hours. After that, a sample such as the berberine solutions with different concentrations and the extract of C. chinensis was added into 24-well plate directly, and cultured at 37° C. for 24, 48, and 72 hours, respectively. Thiazolyl blue tetrazolium bromide (MTT, m5655, Sigma, St. Louis, U.S.A.) solution was prepared in a concentration of 5.5 mg/ml with phosphate buffered saline (PBS) filtered by 0.22 μm membrane. The MTT solution (50 μl) was added to the wells of 24-well plates with A549, NCI-H460, NCI-H520, and MRC5 cell lines cultured after 24, 48, and 72 hours. The plates were incubated at 37° C. for 2 hours and then moved out. The media of the wells were removed. […]
For orientation: Formazan colour is commonly taken as a measure of viable cells.

Another assay relates to A549 cell line. Put plainly: MTT cell proliferation assay, A549. To be noted: Homo sapiens, 48 hours, read-out: half maximal inhibitory concentration (IC50). The procedure: as §1
A further assay concerns A549 cells. Put plainly: Side population analysis (Hoechst33342, flow cytometry). As to conditions: A549, dose of IC50, 48 hours. Here is the method:
A549 cells were seeded in the number of about 3×10^5 in 10 cm dish to give adequate number of cells for analysis. The cells were treated with the extract of C. chinensis and the berberine solution in the dose of IC50 for 48 hours. Then, the treated cells were harvested by typsinization and centrifugation. The harvested cells were re-suspended in the number of 1×10^6 cells/ml in culture medium containing 2% FBS. Hoechst33342 dye (5 μg/ml, Invitrogen, Carlsbad, U.S.A.) was added with or without reserpine (50 μM, Sigma, St. Louis, U.S.A.) as a blocking reagent. The cells were further incubated at 37° C. for 2 hours under frequently gentle vortex to ensure uniform staining, and then washed cells with PBS. PI staining (20 ng/ml) was used to determine the live/dead cells. In order to set up the fluorescence compensation, single staining and non-staining groups were prepared. The cell samples were filtered with nylon mesh (35 μm) to prevent cell aggregation. PI-positive dead cells were primary excluded to avoid false positive signals. Then, the Hoechst blue and red dot plotting was used to determine the side population. A gate of a side population was defined by the diminishing region of two samples groups, i.e. with or without reserpine. The percentages of the side population were further analyzed by Flowjo software (TreeStar, Ashland, U.S.A.).

For the next assay, the system named is NCI-H460 cell line. Put plainly: MTT cell proliferation assay, NCI-H460. As to conditions: Homo sapiens, 48 hours, read-out: half maximal inhibitory concentration (IC50). Here is the method: as §1

As for `COc1ccc2cc3[n+](cc2c1OC)CCc1cc2c(cc1-3)OCO2` [berberine solution, berberine chloride], the values for the IC50 in the assay with NCI-H520 cell line, with A549 cell line and in the assay on NCI-H460 cell line were ~20 µM, ~7 µM and ~40 µM, respectively. Besides, the “side population (SP)” value in the assay with A549 cells is “considerably diminished”.

The values above are taken from patent US20150320738A1, “BERBERINE-CONTAINING PHARMACEUTICAL COMPOSITION FOR INHIBITING CANCER STEM CELL GROWTH OR CARCINOMA METASTASIS AND APPLICATION THEREOF” (National Taiwan Normal University, priority 2011, published 2015).
